Laboratory results published in patent US11471452B2, “Compositions and methods for treating or preventing vasomotor symptoms” (Mitsubishi Tanabe Pharma Corporation, priority 2017, dated 2022).

Experiments:
[1] = system: female subjects experiencing Vasomotor Symptoms (VMS); test: Phase Ib study: core body temperature assessment, change from baseline within 24 hours post-dose; assay type: in vivo, human; conditions: 5 mg administered group, within 24 hours post-dose on Visit Day 1 or 7; like placebo, in comparison with 20 mg and 50 mg groups
Text: (§1) Study Design: This was a Phase Ib, randomized, double blind, placebo controlled study. The study design is illustrated in FIG. 1. Following the initial Screening visit, eligible subjects was given an actigraphy event monitor (watch) to record episodes of flashing as Vasomotor symptoms (VMS) events during a period of 2 weeks during Screening, in order to confirm VMS eligibility criteria (≥7 VMS/day on average during 2 weeks). Subjects may be required to return to the site during the Screening period to read or exchange the actigraphy event monitor. Subjects deemed eligible following review of VMS data were invited to attend the Clinical research unit (CRU) for one residential period of 16 days duration, including 14 days of Investigational Medicinal Product (IMP) administration. Subjects were admitted to the CRU 1 day prior to dosing (Day-1). No medication was administered on Day-1. On Day 1, subjects who meet the study eligibility criteria were randomized to receive one dose level of either Compound A (6 subjects) or a matching placebo (2 subjects) in a double-blind manner. Randomized treatment was administered once nightly, starting on Day 1, for a total duration of 14 days.
The anticipated dose levels of Compound A to be administered are 50 mg for Cohort 1, 20 mg for Cohort 2 and 5 mg for Cohort 3. […]

[2] = system: female subjects experiencing Vasomotor Symptoms (VMS); test: Phase Ib study: frequency of vasomotor symptoms (VMS), moderate and severe VMS counted, 14 days once nightly dosing; assay type: in vivo, human; design: Mean Observed Value in VMS frequency: unit not given here
Text: as §1
The anticipated dose levels of Compound A to be administered are 50 mg for Cohort 1, 20 mg for Cohort 2 and 5 mg for Cohort 3. Progression to the next dose level and selection of the dose to be administered in Cohort 2 and Cohort 3 is based on emerging safety and tolerability data and available core body temperature data from the preceding dose cohort. If the dose escalation stopping criteria are met, then the dose for the subsequent cohort is reduced. […] The three cohorts are dosed sequentially with a fourth additional cohort being dosed, if necessary, to investigate other dose levels.
Five (5) mg of Compound A was administered to the female subjects experiencing Vasomotor Symptoms (VMS), and as the above-mentioned assessments, a Frequency of VMS and a Core body temperature assessment were examined.
Here a moderate VMS and a severe VMS were counted as a VMS frequency.

O=C(O)c1ccc(S(=O)(=O)N(Cc2ccc(OC(F)(F)F)cc2)c2ncc3ccccc3c2C2CC2)cc1 [Compound A, 4-({(4-cyclopropylisoquinolin-3-yl)[4-(trifluoromethoxy)benzyl]amino}sulfonyl)benzoic acid]
Change from baseline in core body temperature [1]: no significant reduced the core body temperature
Effect on frequency of VMS versus placebo (FIG. 2) ([2]; 5 mg once nightly, 14 days of treatment): reduced the frequency of VMS significantly
Onset of the reduction effect of VMS frequency ([2]; 5 mg, shown during the first night of active drug therapy or later, within a few days, compared to estrogen or Paroxetine): immediate effect
Mean Observed Value in VMS frequency ([2]; Baseline, 5 mg Compound A group, moderate and severe VMS counted): 14.5
Mean Observed Value in VMS frequency ([2]; Day 1, 5 mg once nightly): 9.7
Mean Observed Value in VMS frequency ([2]; Day 2, 5 mg once nightly): 7.2
Mean Observed Value in VMS frequency ([2]; Day 3, 5 mg once nightly): 6.3
Mean Observed Value in VMS frequency ([2]; Day 4, 5 mg once nightly): 5.3
Mean Observed Value in VMS frequency ([2]; Day 5, 5 mg once nightly): 8.0
Mean Observed Value in VMS frequency ([2]; Day 6, 5 mg once nightly): 6.3
Mean Observed Value in VMS frequency ([2]; Day 7, 5 mg once nightly): 4.7
Mean Observed Value in VMS frequency ([2]; Day 8, 5 mg once nightly): 3.7
Mean Observed Value in VMS frequency ([2]; Day 9, 5 mg once nightly): 4.5
Mean Observed Value in VMS frequency ([2]; Day 10, 5 mg once nightly): 3.2
Mean Observed Value in VMS frequency ([2]; Day 11, 5 mg once nightly): 3.7
Mean Observed Value in VMS frequency ([2]; Day 12, 5 mg once nightly): 3.2
Mean Observed Value in VMS frequency ([2]; Day 13, 5 mg once nightly): 3.2
Mean Observed Value in VMS frequency ([2]; Day 14, 5 mg once nightly): 4.8
